Like-named read-outs stand apart in the source and are kept apart here.
Tests used:
[1] = test system: patients with type 2 diabetes; conditions: human, in vivo
Method: Clinical trials as follows were performed with double-blind, parallel group trial on patients with type 2 diabetes.
Type 2 diabetic patients of at least 20 years old whose blood glucose could not be sufficiently controlled by a dietary therapy and who requires introduction of medication and has HbA1C of at least 6.5% and less than 8.5%.
(1) 5 mg tablet of mitiglinide calcium hydrate (hereafter also referred to as “KAD-1229”)
(2) placebo tablet of KAD-1229 5 mg tablet
(4) placebo tablet of KAD-1229 10 mg tablet
(5) 0.2 mg tablet of voglibose
(6) placebo tablet of voglibose 0.2 mg tablet
(Method of Administration)
A 0.2 mg tablet of voglibose was orally administered 3 times a day immediately before every meal (within 5 minutes before eating) for 16 weeks (an observation period: a non-blind trial period). Thereafter, investigational drugs distributed as Table 1 were orally administered 3 times a day immediately before every meal (within 5 minutes before eating) for 12 weeks (a treatment period: a double-blind trial period). Administration of the investigational drugs after meal was not allowed, and administration was not performed when the meal was not taken.
The following items were assessed during and after the period of administration.

[2] = test system: Male Wistar rats; assay: Oral sucrose tolerance test; type: in vivo, rat; conditions: in combination with voglibose, sucrose 2.5 g/kg, compared to nateglinide or repaglinide, FIG. 11
Method: Male Wistar rats purchased from Japan SLC, Inc. were used in this test.
An oral sucrose tolerance test was performed using 7-week-old rats.
The rats were fasted for at least 16 hours and received oral administration of 2.5 mL/kg of a prepared tested substance or a vehicle (0.5% CMC solution), followed by oral administration of 5 mL/kg of 0.5 g/mL sucrose solution (2.5 g/kg). Blood was drawn from a rat tail vein immediately before administration and 0.25 and 0.5 hours after loading. A plasma glucose concentration was measured using a Glucose CII-test Wako (Wako Pure Chemical Industries, Ltd.).
A dose of the tested substance was converted from a usual dose of each drug for a type 2 diabetic patient (mitiglinide: 10 mg, nateglinide: 120 mg, repaglinide: 1 mg). As for nateglinide, a converted value of 12 mg was changed to 20 mg to be set as a dose, considering an effect thereof.
An area under the plasma glucose concentration-time curve from a time before sucrose loading to 0.5 hours after sucrose loading (AUC0-0.5 hr) was set as an assessment item. Blood glucose AUC0-0.5 hr was calculated from plasma glucose concentrations with a trapezoidal rule using the area under the plasma glucose concentration-time curve.
Excel (Microsoft Corp.) and GraphPad Prism 3.0 (GraphPad Software Inc.) were used to aggregate and calculate data, to make diagrams and the like. […]

Structure (SMILES)	Incidence rate of gastrointestinal disorders ([1]; 12 weeks)	Incidence rate of hypoglycemic symptoms ([1]; 12 weeks)	blood glucose decreasing effect (blood glucose AUC0-0.5 hr) [2]	Incidence rate of gastrointestinal disorders [1]	Incidence rate of hypoglycemic symptoms [1]
OCC(CO)N[C@H]1C[C@](O)(CO)[C@@H](O)[C@H](O)[C@H]1O [Comparative Example 1, voglibose]	10.1%	1.1%	–	–	–
O.O.O=C([O-])[C@H](CC(=O)N1C[C@H]2CCCC[C@H]2C1)Cc1ccccc1.O=C([O-])[C@H](CC(=O)N1C[C@H]2CCCC[C@H]2C1)Cc1ccccc1.[Ca+2] [Comparative Example 2, mitiglinide calcium hydrate]	–	–	strong blood glucose decreasing effect within a very short time	6.8%	3.9%

Source: US7888382B2, “Combined pharmaceutical preparation for treatment of type 2 diabetes” (Kissei Pharmaceutical Co., Ltd., priority 2005, dated 2011)
